Test results as given in patent US5807541A, “NSAID/fluoride periodontal compositions and methods” (Sepracor, Inc., priority 1996, dated 1998).
Where two headings read alike, the source gives them in different places.

How the values were obtained:
[1] = system: PGE2 secretion in human promyelocytic leukemia cells (HL-60 cells); assay: PGE2 secretion in human promyelocytic leukemia (HL-60) cells (A23187-induced), fluoride and NSAIDs alone or combined; details: for % inhibition of PGE2 / % stimulation of PGE2 (value in parentheses): Table II; for % Inhibition of A23187-induced PGE2 secretion / % stimulation of A23187-induced PGE2 secretion: mean of two determinations;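 on all read-outs here: fluoride given as NaF, each condition run in duplicate, signals corrected for background and referenced to control, IC50 obtained by nonlinear regression Hill fitting of the curve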
dental caries = details: professionally applied topical fluoride, dentifrices and mouthwashes; high risk patients; cited from earlier work
[2] = system: prostaglandin production in endothelial cells; details: under certain circumstances; cited from earlier work
G proteins = details: under certain circumstances; cited from earlier work
[3] = Homo sapiens, HL-60, read-out: % inhibition of PGE2
[4] = Homo sapiens, HL-60, read-out: IC50, inhibition of PGE2 secretion, summary of Tables III and IV
[5] = ketoprofen enantiomer 10^-7 M + F 0.05%
[6] = ketoprofen enantiomer 10^-7 M + F 0.1%
[7] = ketoprofen enantiomer 10^-7 M + F 0.5%
[8] = ketoprofen enantiomer 10^-7 M, F 0%
[9] = ketoprofen enantiomer 10^-8 M + F 0.05%
[10] = ketoprofen enantiomer 10^-8 M + F 0.1%
[11] = ketoprofen enantiomer 10^-8 M + F 0.5%
[12] = ketoprofen enantiomer 10^-8 M, F 0%
[13] = ketoprofen enantiomer 10^-9 M + F 0.05%
[14] = ketoprofen enantiomer 10^-9 M + F 0.1%
[15] = ketoprofen enantiomer 10^-9 M + F 0.5%
[16] = ketoprofen enantiomer 10^-9 M, F 0%
[17] = ketoprofen enantiomer 10^-10 M + F 0.05%, 0.0001 µM
[18] = ketoprofen enantiomer 10^-10 M + F 0.05%
[19] = ketoprofen enantiomer 10^-10 M + F 0.1%
[20] = ketoprofen enantiomer 10^-10 M + F 0.5%
[21] = ketoprofen enantiomer 10^-10 M, F 0%

CC(C(=O)O)c1cccc(C(=O)c2ccccc2)c1 (racemic) [ketoprofen]
inhibition of PGE2 (in words) ([1]; 10^-10 M ketoprofen alone): undetected | PGE2 production (in words) ([1]; 10^-10 M ketoprofen at 260 mM fluoride): totally inhibited | inhibition at 0.001 µM [1, 3]: 40% | inhibition at 0.01 µM [1, 3]: 63% | inhibition at 0.1 µM [1, 3]: 82% | IC50 ([1]; Homo sapiens, HL-60, read-out: IC50, PGE2 production, racemic ketoprofen + 52 mM fluoride): 11.8 nM | IC50 ([1]; Homo sapiens, HL-60, read-out: IC50, PGE2 production, racemic ketoprofen alone (no F)): 2.8 nM | inhibition at 0.0001 µM ([1]; Homo sapiens, HL-60, read-out: inhibition of PGE2 levels): 26% | % inhibition of PGE2 ([1]; racemic ketoprofen 10^-7 M + fluoride 26 mM): 66% | % inhibition of PGE2 ([1]; racemic ketoprofen 10^-7 M + fluoride 52 mM): 85% | % inhibition of PGE2 ([1]; racemic ketoprofen 10^-7 M + fluoride 260 mM): 98% | % inhibition of PGE2 ([1]; racemic ketoprofen 10^-8 M + fluoride 52 mM): 46% | % inhibition of PGE2 ([1]; racemic ketoprofen 10^-8 M + fluoride 260 mM): 97% | % stimulation of PGE2 (value in parentheses) ([1]; racemic ketoprofen 10^-9 M + fluoride 26 mM): 125% | % inhibition of PGE2 ([1]; racemic ketoprofen 10^-9 M + fluoride 52 mM): 11% | % inhibition of PGE2 ([1]; racemic ketoprofen 10^-9 M + fluoride 260 mM): 101% | % stimulation of PGE2 (value in parentheses) ([1]; racemic ketoprofen 10^-10 M + fluoride 26 mM): 125% | % inhibition of PGE2 ([1]; racemic ketoprofen 10^-10 M + fluoride 260 mM): 102% | increase of IC50 for ketoprofen by fluoride ([1]; fluoride 0.1% (52 mM) vs ketoprofen alone): approximately 4 fold | stimulation induced by F^- (in words) ([1]; highest concentration of ketoprofen (10^-7)): overcome

C[C@@H](C(=O)O)c1cccc(C(=O)c2ccccc2)c1 [(R)-Ketoprofen]
IC50 [1, 4]: ~100 nM | % Inhibition of A23187-induced PGE2 secretion [1, 5]: 47% | % Inhibition of A23187-induced PGE2 secretion [1, 6]: 75% | % Inhibition of A23187-induced PGE2 secretion [1, 7]: 100% | % Inhibition of A23187-induced PGE2 secretion [1, 8]: 81% | % Inhibition of A23187-induced PGE2 secretion [1, 9]: 5% | % Inhibition of A23187-induced PGE2 secretion [1, 10]: 32% | % Inhibition of A23187-induced PGE2 secretion [1, 11]: 99% | % Inhibition of A23187-induced PGE2 secretion [1, 12]: 39% | stimulation factor, A23187-induced PGE2 secretion ([1]; ketoprofen enantiomer 10^-9 M + F 0.05%, 0.001 µM): 1.14 × | % stimulation of A23187-induced PGE2 secretion [1, 13]: 14% | % Inhibition of A23187-induced PGE2 secretion [1, 14]: 2% | % Inhibition of A23187-induced PGE2 secretion [1, 15]: 99% | % Inhibition of A23187-induced PGE2 secretion [1, 16]: 6% | stimulation factor, A23187-induced PGE2 secretion [1, 17]: 1.27 × | % stimulation of A23187-induced PGE2 secretion [1, 18]: 27% | % Inhibition of A23187-induced PGE2 secretion [1, 19]: 23% | % Inhibition of A23187-induced PGE2 secretion [1, 20]: 98% | % Inhibition of A23187-induced PGE2 secretion [1, 21]: 14%

C[C@H](C(=O)O)c1cccc(C(=O)c2ccccc2)c1 [(S)-Ketoprofen]
IC50 [1, 4]: ~0.4 nM | relative potency, inhibition of PGE2 secretion (in words) ([1]; S- vs R-ketoprofen): more potent than R-ketoprofen | % Inhibition of A23187-induced PGE2 secretion [1, 5]: 95% | % Inhibition of A23187-induced PGE2 secretion [1, 6]: 98% | % Inhibition of A23187-induced PGE2 secretion [1, 7]: 99% | % Inhibition of A23187-induced PGE2 secretion [1, 8]: 96% | % Inhibition of A23187-induced PGE2 secretion [1, 9]: 82% | % Inhibition of A23187-induced PGE2 secretion [1, 10]: 89% | % Inhibition of A23187-induced PGE2 secretion [1, 11]: 98% | % Inhibition of A23187-induced PGE2 secretion [1, 12]: 89% | % Inhibition of A23187-induced PGE2 secretion [1, 13]: 35% | % Inhibition of A23187-induced PGE2 secretion [1, 14]: 54% | % Inhibition of A23187-induced PGE2 secretion [1, 15]: 100% | % Inhibition of A23187-induced PGE2 secretion [1, 16]: 70% | stimulation factor, A23187-induced PGE2 secretion [1, 17]: 1.22 × | % stimulation of A23187-induced PGE2 secretion [1, 18]: 27% | % Inhibition of A23187-induced PGE2 secretion [1, 19]: 18% | % Inhibition of A23187-induced PGE2 secretion [1, 20]: 100% | % Inhibition of A23187-induced PGE2 secretion [1, 21]: 10%

[F-].[Na+] [fluoride, sodium fluoride]
prevention of dental caries (in words) (dental caries): effective in preventing dental caries among high risk patients | prostaglandin production in endothelial cells (in words) [2]: induce prostaglandin production | activation of G proteins (in words) (G proteins): activate G proteins | PGE2 secretion, % Control, 1st Value ([1]; F 0.0001% (52 μM)): 80.1% | PGE2 secretion, % Control, 2nd value ([1]; F 0.0001% (52 μM)): 87.4% | PGE2 secretion, % Control, mean ([1]; F 0.0001% (52 μM)): 83.7% | PGE2 secretion, % Control, 1st Value ([1]; F 0.001% (520 μM)): 94.1% | PGE2 secretion, % Control, 2nd value ([1]; F 0.001% (520 μM)): 74.9% | PGE2 secretion, % Control, mean ([1]; F 0.001% (520 μM)): 84.5% | PGE2 secretion, % Control, 1st Value ([1]; F 0.01% (5.2 mM)): 117.7% | PGE2 secretion, % Control, 2nd value ([1]; F 0.01% (5.2 mM)): 99.8% | PGE2 secretion, % Control, mean ([1]; F 0.01% (5.2 mM)): 108.7% | PGE2 secretion, % Control, 1st Value ([1]; F 0.02% (10.4 mM)): 188.7% | PGE2 secretion, % Control, 2nd value ([1]; F 0.02% (10.4 mM)): 208.8% | PGE2 secretion, % Control, mean ([1]; F 0.02% (10.4 mM)): 198.8% | PGE2 secretion, % Control, 1st Value ([1]; F 0.05% (26 mM)): 157.9% | PGE2 secretion, % Control, 2nd value ([1]; F 0.05% (26 mM)): 177.3% | PGE2 secretion, % Control, mean ([1]; F 0.05% (26 mM)): 167.6% | stimulation factor, A23187-induced PGE2 secretion ([1]; F 0.05%, ketoprofen 0): 1.16 × | % stimulation of A23187-induced PGE2 secretion ([1]; F 0.05%, ketoprofen 0): 16% | PGE2 secretion, % Control, 1st Value ([1]; F 0.07% (36 mM)): 142.1% | PGE2 secretion, % Control, 2nd value ([1]; F 0.07% (36 mM)): 142.1% | PGE2 secretion, % Control, mean ([1]; F 0.07% (36 mM)): 142.1% | PGE2 secretion, % Control, 1st Value ([1]; F 0.1% (52 mM)): 115.1% | PGE2 secretion, % Control, 2nd value ([1]; F 0.1% (52 mM)): 112.6% | PGE2 secretion, % Control, mean ([1]; F 0.1% (52 mM)): 113.9% | % Inhibition of A23187-induced PGE2 secretion ([1]; F 0.1%, ketoprofen 0): 26% | PGE2 secretion, % Control, 1st Value ([1]; F 0.2% (104 mM)): 5.2% | PGE2 secretion, % Control, 2nd value ([1]; F 0.2% (104 mM)): 8.9% | PGE2 secretion, % Control, mean ([1]; F 0.2% (104 mM)): 7.0% | PGE2 secretion, % Control, 1st Value ([1]; F 0.3% (156 mM)): 4.9% | PGE2 secretion, % Control, 2nd value ([1]; F 0.3% (156 mM)): 3.1% | PGE2 secretion, % Control, mean ([1]; F 0.3% (156 mM)): 4.0% | PGE2 secretion, % Control, 1st Value ([1]; F 0.5% (260 mM)): 0.5% | PGE2 secretion, % Control, 2nd value ([1]; F 0.5% (260 mM)): 1.7% | PGE2 secretion, % Control, mean ([1]; F 0.5% (260 mM)): 1.1% | % Inhibition of A23187-induced PGE2 secretion ([1]; F 0.5%, ketoprofen 0): 96% | production of prostaglandins (in words) ([1]; concentration range employed for the prevention of dental caries): stimulates the production of prostaglandins | maximum stimulation of PGE2 secretion ([1]; fluoride 0.02%): 99% | effect of fluoride on the inhibitory effects of R- and S-ketoprofen (in words) ([1]; fluoride 26 mM): decrease of the inhibitory effects of R- and S-ketoprofen | effect of fluoride in combination with R- and S-ketoprofen (in words) ([1]; fluoride 260 mM): amplifies its inhibitory effects | effect on PGE2 secretion (in words) ([1]; fluoride above 0.2%): completely inhibits PGE2 secretion | stimulation of PGE2 production ([1]; fluoride alone, 26 mM (0.05%)): 108% | inhibition of PGE2 production ([1]; fluoride alone, 52 mM): 12% | inhibition of PGE2 production ([1]; fluoride alone, 260 mM): 92% | effect on stimulated PGE2 secretion (in words) ([1]; fluoride below about 5 mM (below about 0.01% w/v)): no significant effect | effect on PGE2 secretion (in words) ([1]; fluoride from 0.0001 to 0.01%): no effect | effect on PGE2 secretion (in words) ([1]; fluoride from 0.02 to 0.07%): induces stimulation | effect on PGE2 secretion (in words) ([1]; fluoride ion above about 50 mM (above about 0.1% w/v)): inhibitory to PGE2 secretion | peak production of PGE2, % of control ([1]; fluoride ion at about 10 mM): 200% | production of PGE2 (in words) ([1]; fluoride ion between about 5 and about 50 mM): stimulates the production of prostaglandin E2

COc1ccc2c(c1)c(CC(=O)O)c(C)n2C(=O)c1ccc(Cl)cc1 [indomethacin]
IC50 ([1]; Homo sapiens, HL-60, read-out: IC50, A23187-induced PGE2 secretion, in the absence of fluoride): 0.92 nM
